The results in this text go back to ChEMBL document CHEMBL1201862, “PubChem BioAssay data set” (2004).

Among the test systems are COLO 205; SK-OV-3; SR; SK-MEL-5; NCI-H460; IGROV-1; OVCAR-5; SNB-19; EKVX; CAKI-1; SK-MEL-28; UACC-62; NCI-H226; A549; OVCAR-4; HCT-116; CCRF-CEM; U-251; HL-60; M14.
Holding throughout (assay): NCI tumour cell line growth inhibition, 48 h

Each structure is given as a SMILES string.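 Assay format: 96-well plates, 48-hour exposure. At the GI50, growth is halved.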 Active and inactive are the calls of the source. Rule as the data show it: active = GI50 up to about 1.1 µM and inactive = higher.

Consider `Nc1nc(Cl)cc(NCC2(CO)CC(O)C2)n1` (centres undefined), for which the GI50 in the assay on COLO 205, in the assay on SK-OV-3, in the assay on SR, in the assay on SK-MEL-5, with NCI-H460 and in the assay with IGROV-1 was > 100 µM (inactive) each time. The GI50 in the assay on OVCAR-5, with SNB-19, in the assay with EKVX, with CAKI-1, with SK-MEL-28 and in the assay with UACC-62 was > 100 µM (inactive) each time. Also, the GI50 in the assay with NCI-H226, in the assay with A549, with OVCAR-4, in the assay with HCT-116, in the assay on CCRF-CEM and with U-251 was > 100 µM (inactive) throughout. For the same compound, the GI50 in the assay with HL-60 is > 100 µM (inactive).

Turning to `O=C1NCC2(CCNCC2)N1c1ccccc1`, the GI50 with COLO 205, in the assay on SR, in the assay with M14, in the assay with SK-MEL-5, in the assay on NCI-H460 and with IGROV-1 was > 100 µM (inactive) each time. The GI50 in the assay with OVCAR-5, with SNB-19, in the assay with EKVX, in the assay with CAKI-1, with SK-MEL-28 and in the assay with UACC-62 was > 100 µM (inactive) in each case. Further, the GI50 with NCI-H226, in the assay on A549, with OVCAR-4, in the assay on HCT-116, with CCRF-CEM and in the assay with U-251 was > 100 µM (inactive) in each case. For the same compound, the GI50 with HL-60 is > 100 µM (inactive).

On to `CC(C)CCC/C(CBr)=C(\Cl)CCl`, for which the GI50 with COLO 205 is 1.83 µM (inactive); in the assay on SK-OV-3, 7.82 µM (inactive); in the assay with SR it was 0.746 µM (active); with M14, 1.93 µM (inactive); with SK-MEL-5, 1.95 µM (inactive); in the assay on NCI-H460 it was 5.05 µM (inactive). The GI50 in the assay on IGROV-1 is 1.6 µM (inactive); in the assay on OVCAR-5 it was 15.1 µM (inactive); in the assay with SNB-19, 14.5 µM (inactive); in the assay on EKVX, 16.6 µM (inactive); in the assay with CAKI-1, 5.06 µM (inactive); in the assay with SK-MEL-28, 2.07 µM (inactive). For the same compound, the GI50 in the assay with NCI-H226 was 7.89 µM (inactive); in the assay with A549, 15.7 µM (inactive); in the assay with OVCAR-4 it was 1.48 µM (inactive); with HCT-116, 2.69 µM (inactive); with CCRF-CEM, 0.123 µM (active); in the assay with U-251, 4.04 µM (inactive). The GI50 in the assay with HL-60 was 0.103 µM (active).

For `CCOC(=O)NN1C(=O)C(=P(c2ccccc2)(c2ccccc2)c2ccccc2)C(C(=O)OCC)=C1C`, the GI50 with COLO 205, in the assay on SK-OV-3, in the assay on SR, in the assay on M14, in the assay on SK-MEL-5 and in the assay on NCI-H460 was > 100 µM (inactive) in each case. Moreover, the GI50 in the assay with IGROV-1, in the assay on OVCAR-5, in the assay on SNB-19, in the assay on EKVX, in the assay with CAKI-1 and with UACC-62 was > 100 µM (inactive) in each case. In addition, the GI50 with NCI-H226, in the assay on A549, in the assay on OVCAR-4, with HCT-116, in the assay on CCRF-CEM and in the assay on U-251 was > 100 µM (inactive) each time. In the assay with HL-60, the GI50 is > 100 µM (inactive).

In the case of `CC(C)C[C@H](NC(=O)[C@H](CCc1ccccc1)NC(=O)c1ccc2ccccc2n1)B(O)O`, the GI50 with COLO 205 is 0.043 µM (active); in the assay with SR, < 0.0158 µM (active); with M14, < 0.0109 µM (active); in the assay with SK-MEL-5, < 0.0136 µM (active); with NCI-H460 it was 0.394 µM (active); in the assay on IGROV-1, 0.0705 µM (active). Also, the GI50 was < 0.0268 µM (active) with OVCAR-5; 0.264 µM (active) in the assay on EKVX; < 0.0194 µM (active) in the assay on CAKI-1; < 0.01 µM (active) in the assay with SK-MEL-28; 0.0973 µM (active) in the assay with UACC-62; < 0.01 µM (active) in the assay with NCI-H226. The GI50 is 0.233 µM (active) in the assay on A549; 0.185 µM (active) in the assay on OVCAR-4; < 0.0122 µM (active) in the assay with HCT-116; < 0.01 µM (active) with CCRF-CEM; 0.178 µM (active) in the assay with U-251; < 0.01 µM (active) in the assay with HL-60.

Regarding `CCCCCCCCCCCCC(O)C1CCC(C(O)CCCCCCC(O)CCCCCCCC2=CC(C)OC2=O)O1` (centres undefined), the GI50 in the assay on COLO 205 was 19.7 µM (inactive); in the assay on SR, 0.407 µM (active); with M14, 19.2 µM (inactive); with SK-MEL-5 it was 1.19 µM (inactive); in the assay with NCI-H460, 12.9 µM (inactive); with IGROV-1 it was 35.5 µM (inactive). The GI50 was > 10 µM (inactive) in the assay with OVCAR-5; 34.4 µM (inactive) in the assay on SNB-19; 1.71 µM (inactive) in the assay with EKVX; 24.9 µM (inactive) in the assay on CAKI-1; 51.9 µM (inactive) in the assay with SK-MEL-28; > 10 µM (inactive) in the assay with UACC-62. Also, the GI50 with NCI-H226 is 48.2 µM (inactive); with A549, 4.23 µM (inactive); in the assay with OVCAR-4, 34.4 µM (inactive); in the assay with HCT-116, 0.127 µM (active); with CCRF-CEM it was 3.1 µM (inactive); in the assay with U-251, 61.9 µM (inactive). In the assay with HL-60, the GI50 was 3.92 µM (inactive).

As to `O=C(CN1CCCCC1)c1ccc2c(c1)Sc1ccccc1O2`, the GI50 is 7.73 µM (inactive) in the assay with COLO 205; 15.5 µM (inactive) in the assay on SK-OV-3; 18.4 µM (inactive) with SR; 14.1 µM (inactive) in the assay with M14; 14.1 µM (inactive) with NCI-H460; 10.6 µM (inactive) in the assay on IGROV-1. For the same compound, the GI50 in the assay with OVCAR-5 is 15 µM (inactive); in the assay with SNB-19, 13.7 µM (inactive); with EKVX, 17.1 µM (inactive); with CAKI-1, 18.3 µM (inactive); with SK-MEL-28, 18.7 µM (inactive); in the assay with UACC-62 it was 11.5 µM (inactive). Also, the GI50 in the assay with NCI-H226 is 14.2 µM (inactive); in the assay on A549, 14.2 µM (inactive); in the assay on OVCAR-4 it was 13 µM (inactive); with HCT-116, 14.4 µM (inactive); in the assay on CCRF-CEM, 12.6 µM (inactive); with U-251, 15.5 µM (inactive). Further, in the assay with HL-60, the GI50 was 14.2 µM (inactive).

On to `CCn1c2ccccc2c2ccc(C3C(C(=O)OC)=C(C)NC(C)=C3C(=O)OC)cc21`, for which the GI50 is 48.5 µM (inactive) in the assay on COLO 205; > 100 µM (inactive) in the assay with SK-OV-3; 42.9 µM (inactive) with SR; 43.6 µM (inactive) with SK-MEL-5; 35.5 µM (inactive) with NCI-H460; > 100 µM (inactive) in the assay on IGROV-1. In addition, the GI50 in the assay with OVCAR-5 is > 100 µM (inactive); with SNB-19, 55.8 µM (inactive); in the assay on EKVX, 45.6 µM (inactive); in the assay on CAKI-1, 31 µM (inactive); with SK-MEL-28, 70.1 µM (inactive); with UACC-62 it was 87.9 µM (inactive). Moreover, the GI50 in the assay with NCI-H226 was 33 µM (inactive); in the assay with A549 it was 46.6 µM (inactive); in the assay on OVCAR-4, 51.5 µM (inactive); with HCT-116, 43.7 µM (inactive); with CCRF-CEM it was 30.4 µM (inactive); with U-251 it was 67.8 µM (inactive). The GI50 in the assay with HL-60 was 20.1 µM (inactive).

Turning to `O=C1Nc2ccc(Br)cc2/C1=N/Nc1ccc([N+](=O)[O-])cc1`, the GI50 with COLO 205 is 27.2 µM (inactive); with SK-OV-3 it was 19.5 µM (inactive); in the assay with SR, 22.8 µM (inactive); with M14, 23.6 µM (inactive); with SK-MEL-5, 25 µM (inactive); in the assay on NCI-H460, 17.4 µM (inactive). Further, the GI50 in the assay with IGROV-1 was 38.8 µM (inactive); in the assay with SNB-19 it was 19.3 µM (inactive); in the assay with EKVX, 23.9 µM (inactive); in the assay on CAKI-1, 22.8 µM (inactive); in the assay on SK-MEL-28 it was 16.8 µM (inactive); in the assay on UACC-62 it was 27.9 µM (inactive). Besides, the GI50 was 18 µM (inactive) with NCI-H226; 19 µM (inactive) in the assay on A549; 17.3 µM (inactive) in the assay with OVCAR-4; 17.1 µM (inactive) with HCT-116; 33 µM (inactive) in the assay on CCRF-CEM; 18.7 µM (inactive) in the assay with U-251. In the assay with HL-60, the GI50 was 12.6 µM (inactive).

Turning to `COc1ccc(-c2c(N)n(-c3cccc(C(=O)O)c3)c(=O)c3cc([N+](=O)[O-])ccc23)cc1`, the GI50 in the assay with SK-OV-3, in the assay on SR, in the assay on M14, in the assay on SK-MEL-5, in the assay with NCI-H460 and with IGROV-1 was > 100 µM (inactive) throughout. The GI50 in the assay on OVCAR-5, with SNB-19, in the assay on EKVX, in the assay with CAKI-1, in the assay with SK-MEL-28 and with UACC-62 was > 100 µM (inactive) each time. Also, the GI50 in the assay on NCI-H226, in the assay on A549, in the assay on OVCAR-4, with HCT-116, in the assay with CCRF-CEM and with U-251 was > 100 µM (inactive) in each case. The GI50 with HL-60 is > 100 µM (inactive).
